From the METLIN SMRT retention time set (Domingo-Almenara et al. 2019) come the findings set out here.

The data set is described as follows: gradient 5% acetonitrile 3 min, to 50% in 2 min, to 85% in 15 min, held 3 min, 100 µL/min. The conditions noted are these: column: Zorbax Extend-C18 2.1 x 50 mm; eluents: water / acetonitrile, 0.1% formic acid. In short, it runs like this:
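Data were gathered over 3 months by HPLC coupled to a quadrupole time-of-flight mass spectrometer, operated in positive and negative ionization mode. Mixtures of ~100 pure standards ran on a Zorbax Extend-C18 column (2.1 × 50 mm, 1.8 μm) at 100 μL/min, with water and acetonitrile each containing 0.1% formic acid and dead and dwell volumes of 40 μL and 900 μL. Retention time was read from adduct peaks picked by computer and checked manually.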
`CCc1noc(-c2cccnc2N2CCCN(Cc3ccccc3F)CC2)n1`: the RP-LC retention time was determined as 662 s.

Regarding `CC(C)c1csc(-c2csc(S(=O)(=O)NCc3ccc(Cl)cc3)c2)n1`, the RP-LC retention time was found to be 1160 s.

In turn, `CCn1cc(-c2ccncc2)cc1C(=O)NCc1ccc2c(c1)OCO2` gave an RP-LC retention time of 641 s.

In the case of `Cc1ccc(NC(=O)N(C)CC2CCOCC2)cc1F`, the RP-LC retention time is 748 s.

Molecule `O=C(Nc1ccc(Br)cc1)C1CCCN(c2nccnc2Oc2ccccc2)C1` (centres undefined) registered an RP-LC retention time of 1140 s.

`Cn1c(=O)n(CC(=O)N2CCCCC2)c(=O)c2cnc(-c3ccc(Cl)cc3)nc21` registered an RP-LC retention time of 1050 s.

`CN1CCCc2cc(C(CNC(=O)C(=O)NCc3ccc(F)cc3)N3CCOCC3)ccc21` (centres undefined) returned an RP-LC retention time of 569 s.

`CCOC(=O)C1CCN(C2=NS(=O)(=O)c3ccccc32)CC1` registered an RP-LC retention time of 739 s.

With `Cc1ccc(-c2nc3ccc(C)cn3c2Nc2ccccc2C)cc1`, the RP-LC retention time is 788 s.

In turn, `CCOc1cc(=O)n2c(c1C(=O)Nc1cc(F)cc(F)c1)CCCC2` returned an RP-LC retention time of 794 s.

The molecule `CC(C)CCNS(=O)(=O)c1ccc(-c2nc(C(C)C)cs2)s1` yielded an RP-LC retention time of 1260 s.

The molecule `CCCS(=O)(=O)N1CCCc2ccc(NC(=O)NC3CCCCC3)cc21` registered an RP-LC retention time of 882 s.

Consider `COc1ccc(CNC(=O)c2[nH]c3cc(C)sc3c2CN2CCCC2)cc1`, for which the RP-LC retention time stood at 679 s.

`COc1ccc(N2CCN(C(=O)Cn3ccc4ccc(-c5nnc(C)o5)cc43)CC2)cc1` showed an RP-LC retention time of 753 s.

`O=S(=O)(c1ccc2nncn2c1)N(Cc1ccc(F)cc1)c1cccc(F)c1` displayed an RP-LC retention time of 861 s.

With `COCCN1C(=O)Cc2ccccc2C1C(=O)NCc1ccc(C(C)C)cc1` (centres undefined), the RP-LC retention time is 861 s.

For `O=C(NC1CCCCCC1)C1CCN(C(=O)c2ncn3c2COC(c2ccccc2)C3)CC1` (centres undefined), the RP-LC retention time turned out to be 794 s.

Regarding `O=c1ccc(-c2cccc(Br)c2)nn1Cc1ccncc1`, the RP-LC retention time was 595 s.

Take `CCOC(=O)c1c(C)[nH]c(C(=O)N2CCCC(C(=O)NCc3cccc(C)c3)C2)c1C` (centres undefined): the RP-LC retention time is 863 s.

`Cc1cc(Nc2nc(C(=O)NCCN3CCOCC3)cc3occc23)ccc1Br` registered an RP-LC retention time of 621 s.

In the case of `O=C(CCCN1C(=O)C(c2ccccc2)Oc2cccnc21)NCCCN1CCCCC1` (centres undefined), the RP-LC retention time worked out at 573 s.

Turning to `COC(=O)c1ccc(NC(=O)Cn2cnc3nc(N4CCCC4)ncc3c2=O)cc1`, the RP-LC retention time is 690 s.

`CCc1nnc2ccc(-c3noc(-c4cccc(Cl)c4)n3)cn12`: the RP-LC retention time came out at 1070 s.

The molecule `Cc1ccc(N2N=C(C(=O)NCCN3CCOCC3)S(=O)(=O)c3cc(F)ccc32)cc1` had an RP-LC retention time of 654 s.

For `O=C(Nc1ccccc1)[C@@H]1OCCN(C2CC2)[C@H]1c1ccccc1`, the RP-LC retention time came to 668 s.

Consider `Cn1cnc(S(=O)(=O)N2CCCCC2c2nc(-c3ccncc3)n[nH]2)c1` (centres undefined), for which the RP-LC retention time is 646 s.

On to `CCC(=O)N1CCN(c2nc(C)cc(N3CCOCC3)n2)CC1`, for which the RP-LC retention time worked out at 578 s.

Molecule `Clc1ccc(Cl)c(-c2ccc(CNCCCn3ccnc3)o2)c1` came in with an RP-LC retention time of 589 s.

`O=C(Nc1ccccc1)N1[C@H]2CC[C@@H]1c1cncnc1C2` yielded an RP-LC retention time of 651 s.

In turn, `CC1(C)CC(O)CC(C)(C)N1CC(O)COc1ccc(Cl)cc1Cl` (centres undefined) registered an RP-LC retention time of 590 s.

Take `COc1ccccc1-n1ccn(Cc2nc(-c3ccc(Cl)cc3)no2)c(=O)c1=O`: the RP-LC retention time was determined as 874 s.

Take `O=C(c1nc(-c2cccc(F)c2)n2c1CCCCC2)N1CCN(c2ccccn2)CC1`: the RP-LC retention time came out at 645 s.

Consider `CCc1ccc(NS(=O)(=O)c2cc(-c3[nH]ncc3C(=O)N3CCCC3)oc2C)cc1`, for which the RP-LC retention time is 758 s.

The molecule `Cc1ccc(C)c(NC(=O)Cc2csc3nc(-c4ccccc4)cn23)c1` returned an RP-LC retention time of 845 s.

For the molecule `CCOc1ccc(-c2noc(Cn3cnc4c(cnn4-c4ccccc4)c3=O)n2)cc1OC`, the RP-LC retention time amounted to 980 s.

In turn, `CCc1ccccc1-n1c(-c2ccc(Cl)cc2)cn2c3c(=O)n(C)c(=O)n(C)c3nc12` yielded an RP-LC retention time of 1110 s.

`Clc1ccc(Sc2c(-c3ccccc3)nc3ncccn23)cc1` displayed an RP-LC retention time of 1030 s.

On to `COc1ccc(CNC(=O)C2(C)CCN(C(=O)Nc3ccc(F)cc3)CC2)cc1`, for which the RP-LC retention time came to 761 s.

Regarding `Cc1cc(=O)n(CC(=O)Nc2ccc3c(c2)OCO3)c(N2CCc3ccccc3C2)n1`, the RP-LC retention time was 742 s.

In turn, `CC(C)NC(=O)N1CCCC(c2cccc(C(=O)NCc3ccc(Cl)cc3)c2)C1` (centres undefined) showed an RP-LC retention time of 923 s.

For the molecule `O=C(CC1CCCC1)N1CCN(c2nnc3ccc(C(F)(F)F)cn23)CC1`, the RP-LC retention time amounted to 797 s.

Molecule `CCc1cc(=O)n(Cc2ncc(C)c(OC)c2C)c(N2CCOCC2)n1` gave an RP-LC retention time of 620 s.

Molecule `CCn1nnc2c(Nc3cccc(C(C)=O)c3)ncnc21` displayed an RP-LC retention time of 686 s.

For the molecule `CCOc1ccc(-c2cc3c(=O)n(Cc4nc(-c5cccc(F)c5)no4)ccn3n2)cc1`, the RP-LC retention time is 1140 s.

As for `Cc1cc(N2CCN(C)CC2)nc2ccc(NC(=S)NCCC(C)C)cc12`, the RP-LC retention time is 572 s.

For the molecule `CCc1nnc(-c2ccc(S(=O)(=O)N3CCOCC3)o2)o1`, the RP-LC retention time was determined as 714 s.

`COC(=O)C1=CN(c2cc(Cl)ccc2OC)c2cc(F)ccc2S1(=O)=O` had an RP-LC retention time of 909 s.

The molecule `COC(=O)c1cc(C2CC2)nc2c1c(=O)n(Cc1ccc(Cl)cc1)c(=O)n2C` displayed an RP-LC retention time of 1180 s.

In the case of `O=c1ccn(-c2ccc(F)c(F)c2)nc1-c1nc(-c2ccccc2)no1`, the RP-LC retention time was 878 s.

With `O=C(CCc1nc(CSc2nc3ccccc3s2)no1)Nc1nc(-c2ccccc2)cs1`, the RP-LC retention time was 1090 s.

As to `O=C(Nc1cccc(-c2ccc(N3CCOCC3)nn2)c1)Nc1ccc2c(c1)CCC2`, the RP-LC retention time is 792 s.

Consider `CCOC(=O)c1c(S(=O)(=O)N2CCC(C(=O)Nc3ccccc3F)CC2)c(C)n(C)c1C`, for which the RP-LC retention time is 851 s.

`CCCCn1c(=O)c2ccccc2n(Cc2nc(-c3ccc(OC)c(OC)c3)no2)c1=O` gave an RP-LC retention time of 1060 s.

As for `Cc1ccc(N2CCC(C(=O)Nc3ccc4c(c3)Cc3ccccc3-4)CC2)nn1`, the RP-LC retention time came to 608 s.

`Cc1ccccc1-n1c(=O)c2sccc2n(Cc2nc(-c3cccc(Br)c3)no2)c1=O`: the RP-LC retention time was determined as 1110 s.

`CN(Cc1nc2cc(C(=O)N3CCCC3)ccc2n1C)C(=O)Nc1ccc(Cl)cc1` showed an RP-LC retention time of 654 s.

In the case of `Cc1c(C(=O)OCC(=O)Nc2cccc(Cl)c2)nnn1-c1ccccc1`, the RP-LC retention time was determined as 946 s.

`Cc1ccc(NC(=O)CN2C(=O)CC(C)S(=O)(=O)c3ccccc32)cc1Cl` (centres undefined): the RP-LC retention time came out at 894 s.

Consider `CCc1ccc(C2=C(C)C(N3CCCN(C(=O)NC)CC3)=NS2(=O)=O)cc1`, for which the RP-LC retention time was 746 s.

`O=C(CN1CCc2[nH]c3c(F)c(Cl)ccc3c(=O)c2C1)Nc1cc(F)ccc1F` returned an RP-LC retention time of 691 s.

Molecule `CCOc1ccc(OCC)c(NC(=O)C2=C(C)C(=O)OC23CCCCCC3)c1` yielded an RP-LC retention time of 1250 s.

Molecule `CCCOc1ccc(NC(=O)c2cc(=O)c3ccc(C)cc3o2)c2cccnc12` returned an RP-LC retention time of 686 s.

Turning to `Cc1oc(C(C)C)nc1C(=O)Nc1ccc(Cl)cc1`, the RP-LC retention time was determined as 1150 s.

With `c1cc(N2CCSCC2)ncc1-c1noc(CN2CCOCC2)n1`, the RP-LC retention time worked out at 702 s.

`CCC(=O)N1CCc2cc(C(=O)NC3CC3)ccc21` returned an RP-LC retention time of 650 s.

`CCc1cccc(NC(=O)Cn2ncc3c(c2=O)N(CC2CC2)C(=O)CS3)c1`: the RP-LC retention time worked out at 859 s.

`Cc1ccc(C(=O)N2CC(Cn3c(C)cnc3C3CCOCC3)C2)s1` displayed an RP-LC retention time of 600 s.

In turn, `Cc1ccc(C)c(NC(=O)CN2CCC(c3nc(-c4cccs4)no3)CC2)c1` gave an RP-LC retention time of 724 s.

As for `COc1ccc(-c2noc(Cc3nnc(-c4cccc(C)c4)o3)n2)cc1F`, the RP-LC retention time came out at 1040 s.

The molecule `COc1cccc(CC2C(=O)Nc3ccc(Cl)cc32)c1OC` (centres undefined) displayed an RP-LC retention time of 900 s.

`CSc1ccc(CNC(=O)CN2CCc3[nH]c4c(C)cc(F)cc4c(=O)c3C2)cc1` registered an RP-LC retention time of 638 s.

On to `CCCCn1c(=O)c2ccccc2n(Cc2nc(-c3ccc(OC(F)(F)F)cc3)no2)c1=O`, for which the RP-LC retention time is 1280 s.

Take `CCn1c(=O)c2ccn(CC(=O)NCc3cc(OC)ccc3OC)c2n(CC)c1=O`: the RP-LC retention time came out at 811 s.

As for `CCOc1ccccc1CNC(=O)C1CCN(S(=O)(=O)c2ccc3c(c2)sc(=O)n3C)CC1`, the RP-LC retention time amounted to 878 s.

In turn, `Cn1cccc1Cc1nnc(SCC(=O)Nc2ccccc2F)n1CCc1ccccc1` came in with an RP-LC retention time of 850 s.

Molecule `CCCCN(C)C(=O)Cn1c(=O)c(S(=O)(=O)c2ccccc2)cc2ccccc21` showed an RP-LC retention time of 893 s.

In turn, `CN(C)CCNC(=O)c1csc(-c2ccc(N3CCCC3)nc2)n1` came in with an RP-LC retention time of 548 s.

In turn, `CCN1CCCn2cc(S(=O)(=O)Nc3ccc(C)cc3Cl)cc2C1=O` gave an RP-LC retention time of 775 s.

On to `CCNC(=O)C1CCCN(c2nc3ncn(CC(=O)NCc4ccc(Cl)cc4)c(=O)c3s2)C1` (centres undefined), for which the RP-LC retention time worked out at 696 s.
